Earlier results in patent publication US5272138A, “Naturally occurring gangliosides containing de-N-acetyl-sialic acid and their applications as modifiers of cell physiology” (The Biomembrane Institute, priority 1990, dated 1993).

Conditions: compared with lysolecithin, Taketomi and Kawamura 1970

## CCCCCCCCCCCCCC=CC(O)C(N)COC1OC(CO)C(OC2OC(CO)C(O)C(OC3(C(=O)O)CC(O)C(N)C(C(O)C(O)CO)O3)C2O)C(O)C1O (stereo not shown)
  hemolytic activity: twice that of lysolecithin
